Counter-ions that a name gives are not always drawn. Like-named read-outs stand apart in the source and are kept apart here.
Experiments:
GABA uptake carrier = target: T1, GABA uptake carrier (Rattus norvegicus, UniProt P31647); test: 3H-GABA uptake in crude membrane preparation from selected brain areas (in presence of NNC 05-0711); format: biochemical
T1 construct: A crude membrane preparation was prepared from selected brain areas; from tissue
T1 sequence (P31647 1-627): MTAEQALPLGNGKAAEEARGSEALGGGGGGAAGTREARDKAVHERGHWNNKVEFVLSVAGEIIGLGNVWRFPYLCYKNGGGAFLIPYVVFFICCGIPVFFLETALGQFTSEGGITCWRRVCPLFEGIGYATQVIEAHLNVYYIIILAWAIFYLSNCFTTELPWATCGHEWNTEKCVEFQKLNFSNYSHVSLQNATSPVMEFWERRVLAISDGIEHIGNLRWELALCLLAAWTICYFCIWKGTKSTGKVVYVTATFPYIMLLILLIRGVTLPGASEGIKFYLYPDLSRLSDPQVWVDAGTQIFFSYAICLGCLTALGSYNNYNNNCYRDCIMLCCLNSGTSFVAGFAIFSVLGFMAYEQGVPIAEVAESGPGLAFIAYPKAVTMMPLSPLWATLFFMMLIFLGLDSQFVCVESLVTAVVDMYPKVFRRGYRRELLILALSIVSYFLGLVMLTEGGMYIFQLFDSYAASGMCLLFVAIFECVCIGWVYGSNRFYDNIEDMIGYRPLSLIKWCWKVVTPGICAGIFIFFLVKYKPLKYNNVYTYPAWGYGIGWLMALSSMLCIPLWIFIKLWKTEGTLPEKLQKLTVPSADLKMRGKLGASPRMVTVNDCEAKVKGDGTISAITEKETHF
Procedure: ^3 H-GABA uptake was measured by a modification of the method of Fjalland et al., (1978). A crude membrane preparation was prepared from selected brain areas by homogenization in 20 ml of ice-cold 0.32M sucrose with a hand driven teflon/glass Potter-Elvehjem homogenizer. homogenate was centrifuged at 4° C. for 10 min. at 1000×g, and the pellet was discarded. The supernatant was recentrifuged at 4° C. for 20 min. at 20.000×g. The pellet was then homogenized in 50 volumes 0.32M sucrose. To 300 μl uptake-buffer ([…], 15.3 mM KCl, 6.67 mM MgSO4, 3.83 mM CaCl2, 16.67 mM glucose, 66.67 mM Tris, pH 7.5 at 30° C.) was added 1-(2-(((diphenylmethylene)amino)oxy)ethyl)-1,2,5,6-tetrahydro-3-pyridinecarboxylic acid (NNC 05-0711) (1 mM final concentration), 100 μl test substance and 50 μl tissue suspension. The sample were mixed and incubated at 30° C. for 8 min. Then ^3 H-GABA (0.9 nM final concentration) and unlabelled GABA (25 nM final concentration) was added, and the incubation was continued for an additional 8 min. The reaction was terminated by rapid filtration through Whatman GF/F glass fiber filters under vacuum. The filters were then washed twice in 10 ml of ice-cold isotonic saline, and the tritium trapped on the filters was quantified by conventional scintillation spectroscopy. Non-GABA uptake carrier mediated uptake of ^3 H-GABA was determined in the presence of […].

GABA uptake [1] = conditions: cited from earlier work
GAT-1 = conditions: cloned GAT-1; cited from earlier work
GABA uptake [2] = conditions: into presynaptic nerve terminals and glial cells; cited from earlier work
[3] = in vitro, crude brain membrane preparation, 1 mM NNC 05-0711, 30° C., 8 min, 0.9 nM 3H-GABA, 25 nM unlabelled GABA, read-out: IC50 (nM) in vitro, Non-GABA uptake carrier mediated uptake of 3H-GABA

| SMILES | IC50 (GABA uptake carrier; [3]) | inhibition of GABA uptake, oral activity (GABA uptake [1]) | further results |
| --- | --- | --- | --- |
| CCc1noc(-c2cc3c4ccccc4n(CCCN4CCC(O)(c5ccccc5)CC4)c3cn2)n1 [Compound 4, 1-(3-(3-(3-Ethyl-1,2,4-oxadiazol-5-yl)-9H-β-carbolin-9-yl)-1-propyl)-4-phenylpiperidin-4-ol] | 932 nM | – | – |
| OC1(c2ccccc2)CCN(CCCn2c3ccccc3c3cc(-c4nc(C5CC5)no4)ncc32)CC1 [Compound 7, 1-(3-(3-(3-Cyclopropyl-1,2,4-oxadiazol-5-yl)-9H-β-carbolin-9-yl)-1-propyl)-4-phenylpiperidin-4-ol hydrochloride] | – | – | IC50 (GABA uptake carrier): 1090 nM |
| OC1(c2ccccc2)CCN(CCCn2c3ccccc3c3cc(-c4nc(-c5ccccc5)no4)ncc32)CC1 [Compound 10, 1-(3-(3-(3-Phenyl-1,2,4-oxadiazol-5-yl)-9H-β-carbolin-9-yl)-1-propyl)-4-phenylpiperidin-4-ol hydrochloride] | – | – | IC50 (GABA uptake carrier): 1440 nM |
| CCOC(=O)c1cc2c(cn1)[nH]c1ccc([N+](=O)[O-])cc12 [Compound 15, 6-Nitro-9H-β-carboline-3-carboxylic acid ethyl ester] | – | – | IC50 (GABA uptake carrier): 6380 nM |
| C=CCN(CC=C)c1ccc2c(c1)c1cc(-c3nc(CC)no3)ncc1n2CCCN1CCC(O)(c2ccccc2)CC1 [Compound 20, 1-(3-(3-(3-Ethyl-1,2,4-oxadiazol-5-yl)-6-dipropenylamino-9H-β-carbolin-9-yl)-1-propyl-4-phenylpiperidin-4-ol hydrochloride] | 5380 nM | – | – |
| CCc1noc(-c2cc3c4cc(N(C)C)ccc4n(CCCN4CCC(O)(c5ccccc5)CC4)c3cn2)n1 [Compound 24] | 4690 nM | – | – |
| Cc1noc(-c2cc3c4ccccc4n(CCCN4CCC(O)(c5ccccc5)CC4)c3cn2)n1 [Compound 26, 1-(3-(3-Methyl-1,2,4-oxadiazol-5-yl)-β-carbolin-9-yl)-1-propyl)-4-phenylpiperidin-4-ol hydrochloride] | 1640 nM | – | – |
| Cc1nc(-c2cc3c4ccccc4n(CCCN4CCC(O)(c5ccccc5)CC4)c3cn2)no1 [Compound 28, 1-(3-(5-Methyl-1,2,4-oxadiazol-3-yl)-β-carbolin-9-yl)-1-propyl)-4-phenylpiperidin-4-ol hydrochloride] | 1240 nM | – | – |
| O=C(O)C1CCCN(CCC=C(c2ccccc2)c2ccccc2)C1 (centres unmarked) [SK&F 89976A, N-(4,4-diphenyl-3-buten-1-yl)nipecotic acid] | – | orally active inhibitors of GABA uptake | – |
| O=C(O)C1=CCCN(CCC=C(c2ccccc2)c2ccccc2)C1 [SK&F 100330A, N-(4,4-diphenyl-3-buten-1-yl)guvacine] | – | orally active inhibitors of GABA uptake | – |
| O=C(O)CC1CCN(CCC=C(c2ccccc2)c2ccccc2)C1 (stereo not drawn) [SK&F 100561, N-(4,4-diphenyl-3-buten-1-yl)-homo-β-proline] | – | orally active inhibitors of GABA uptake | – |
| O=C(O)C1CCCN(CCC=C(c2ccccc2)c2cccs2)C1 (centres unmarked) [SK&F 100604J, N-(4-phenyl-4-(2-thienyl)-3-buten-1-yl)nipecotic acid] | – | orally active inhibitors of GABA uptake | – |
| O=C(O)C1CCCNC1 (centres unmarked) [nipecotic acid, 3-piperidinecarboxylic acid] | – | – | sensitivity of GAT-1 (GAT-1): high sensitivity; inhibition of GABA uptake from the synaptic cleft (GABA uptake [2]): potent inhibitor of GABA uptake |

Reference: US5834482A, “Heterocyclic chemistry” (Novo Nordisk A/S, priority 1995, dated 1998)
